Reference: patent US20090142281A1, “Composition Comprising A Coupled Enzyme System” (priority 2005, published 2009)
Like-named read-outs stand apart in the source and are kept apart here.

Experiments:
Type in all cases: biochemical
Sorbitol oxidase [1] = target: T1, Sorbitol oxidase (Streptomyces coelicolor, UniProt Q9ZBU1)
T1 construct: made in house; host or cells: Streptomyces lividans g3s3 (vector pKB105, PSMM-SOX)
Protocol: Sorbitol oxidase obtained using the methods described in Example 3-4, was tested for finding its activity with various polyol substrates. All substrates used in the assay were 55 mM in 100 mM phosphate buffer pH 7.0 at 25° C. The relative activity using sorbitol as (++++++=100%) is shown below in Table 1. In addition to these substrates, it is contemplated that other substrates, including, but not limited to glycerol, will find use in the present invention.

Sorbitol oxidase [2] = target: T1, Sorbitol oxidase; assay: Relative activity of sorbitol oxidase on xylitol and sorbitol (ABTS assay); conditions: rate of H2O2 production, substrate in excess, same amount of enzyme
Protocol: The commonly used horse radish peroxidase dye substrate ABTS was incorporated into an assay, measuring the production of H2O2 produced by HOX or GOX respectively. ABTS serves as a chromogenic substrate for peroxidase. Peroxidase in combination with H2O2 facilitates the electron transport from the chromogenic dye, which is oxidised to an intensely green/blue compound.
An assay mixture contained 266 μl sorbitol (Sigma P-5504, 0.055 M in 0.1 M sodium phosphate buffer, pH 6.3), (or alternative substrate, e.g. xylitol), 12 μl 2,2′-Azino-bis(3-ethylbenzothiozoline-6-Sulfonic acid) (ABTS) (Sigma A-9941, 5 mg/ml aqueous solution), 12 μl peroxidase (POD) (Sigma P-6782, 0.1 mg/ml in 0.1 M sodium phosphate buffer, pH 6.3) and 10 μl enzyme (SOX or HOX) aqueous solution.
The assay is performed at 25° C.
The incubation was started by the addition of glucose. The absorbance was monitored at 405 nm in an ELISA reader. A standard curve, based on varying concentrations of H2O2, was used for calculation of enzyme activity according to the definition above.
The purpose was to measure the difference in activity of sorbitol oxidase on D-sorbitol and D-xylitol. The ABTS assay was used as described previously to measure the rate of H2O2 production when both D-sorbitol and D-xylitol was in excess. The same amount of enzyme, as prepared in the previous examples was used in both cases. […]

[3] = tested on: hydrogen peroxide production; assay: Synergy between the two enzymes: initial velocity of H2O2 production in 300 uL ABTS assay; conditions: further enzyme at 1× to 3000× excess over polyol oxidase; especially at dosages greater than 1×
From the text: In the example below the amounts of enzyme are given as unit amounts.
A unit of HOX is the amount of enzyme that produced 1 umol H202/min when substrates are in excess.
A unit of GOX is the amount of enzyme that produced 1 umol H202/min when substrates are in excess.
A unit of SOX is the amount of enzyme that produced 1 umol H202/min when substrates are in excess.
The generated sugar will be the limiting factor for the secondary enzyme. As noted above the activity is given as a percentage value of SOX catalysing D-sorbitol when both D-sorbitol and oxygen is in excess.
Initial velocities were measured over 5 minutes in 300 uL ABTS assay (as described previously). The production of rate of hydrogen peroxide production was extrapolated from a standard curve. The measured activity, shown in FIG. 3 and FIG. 4 are given as a percentage value. 100% is defined as the rate of hydrogen peroxide production by sorbitol oxidase alone, when the substrates D-sorbitol and oxygen is in excess (Linear velocity curves)

[4] = In gel overlay activity assay (PMS/NBT) using sorbitol as substrate; conditions: native gel
From the text: b) In gel overlay activity assay (PMS/NBT) using sorbitol as substrate.
The cell lysates were fractionated on a native gel that was further tested in an in-gel overlay activity assay using sorbitol as the substrate and an assay based on the PMS mediated reduction of NBT. […] The PMS/NBT is a diagnostic assay for flavoproteins where PMS=phenazine methosulfate is a redox mediator which is reduced by reduced FAD.

[5] = substrate 55 mM in 100 mM phosphate buffer pH 7.0 at 25° C., relative to sorbitol

T1 sequence (Q9ZBU1 other isoform, or with tags, fused parts or gaps): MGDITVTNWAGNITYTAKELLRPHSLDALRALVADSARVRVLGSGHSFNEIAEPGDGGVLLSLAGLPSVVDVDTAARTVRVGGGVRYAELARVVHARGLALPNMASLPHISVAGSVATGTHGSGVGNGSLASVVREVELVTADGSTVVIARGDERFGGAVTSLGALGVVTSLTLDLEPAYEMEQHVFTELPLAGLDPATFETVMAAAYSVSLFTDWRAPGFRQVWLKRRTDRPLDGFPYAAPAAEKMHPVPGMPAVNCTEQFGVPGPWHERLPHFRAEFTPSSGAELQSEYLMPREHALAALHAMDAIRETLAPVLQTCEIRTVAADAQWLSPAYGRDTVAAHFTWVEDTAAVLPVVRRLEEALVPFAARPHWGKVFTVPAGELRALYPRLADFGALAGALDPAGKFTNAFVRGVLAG

Compound	Relative Activity (+, 0) (Sorbitol oxidase [1]; [5])	Relative activity% (Sorbitol oxidase [2]) [%]	Relative Activity (+, 0) (Sorbitol oxidase [1]; pH 7)	also measured
OC[C@@H](O)[C@@H](O)[C@H](O)[C@H](O)CO [D-Mannitol]	+ + +	–	–	–
OC[C@@H](O)[C@@H](O)[C@H](O)[C@@H](O)CO [D-Sorbitol]	+ + + + + +	100	–	–
OC[C@@H](O)[C@H](O)[C@@H](O)CO [D-Xylitol]	–	47.6	+ + + +	–
OCCO [Ethylene glycol]	–	–	0	–
CC(O)CO (stereo not drawn) [Propylene glycol]	0	–	–	–
glucose oxidase [reference compound]	–	–	–	synergy in initial velocity of H2O2 production (FIG. 4) [3]: dramatic synergy; activity towards sorbitol (stained band) [4]: not active towards sorbitol
